Earlier results, collected in patent US20070031339A1, “Contrast agents” (priority 2003, published 2007).

Details: aqueous solution at 350 mg iodine/ml, 37° C.

Viscosity: 7.6 mPas
Compound: C[C@H](O)C(=O)Nc1c(I)c(C(=O)NC(CO)CO)c(I)c(C(=O)NC(CO)CO)c1I [lopamidol]
